Assay results as given in patent US20140171357A1, “VANCOMYCIN DERIVATIVES” (Seachald Pharmaceuticals, Inc., priority 2011, published 2014).
In brackets after ≈: the same amount, converted by molar mass.

Legend:
[1] = test system: methicillin-susceptible S. aureus (MSSA, 22); assay: MIC broth microdilution, MSSA; conditions: MSSA (22)
[2] = test system: methicillin-resistant S. aureus (MRSA, 22); assay: MIC broth microdilution, MRSA; conditions: MRSA (22)
[3] = test system: vancomycin-intermediate S. aureus (VISA, 5); assay: MIC broth microdilution, VISA
[4] = test system: vancomycin-resistant S. aureus (VRSA, 6); assay: MIC broth microdilution, VRSA
[5] = test system: heterogeneous VISA (hVISA, 10); assay: MIC broth microdilution, hVISA
S. pneumoniae (22) = assay: MIC broth microdilution, S. pneumoniae; conditions: S. pneumoniae (22); MHB + lysed horse blood
[6] = test system: Staphylococcus epidermidis (43 strains); assay: MIC broth microdilution, S. epidermidis; conditions: S. epidermidis (43)
[7] = test system: VanA vancomycin-resistant E. faecium (10); assay: MIC broth microdilution, VanA E. faecium; conditions: E. faecium, VanA (10)
[8] = test system: VanB vancomycin-resistant E. faecium (10); assay: MIC broth microdilution, VanB E. faecium; conditions: E. faecium, VanB (10)
S. aureus ATCC 25923 = assay: Neutropenic murine thigh infection model; conditions: for AUCc-t (AUC difference between control and treated animals): 24 h time kill
[9] = test system: VanA vancomycin-resistant E. faecalis (11); assay: MIC broth microdilution, VanA E. faecalis; conditions: for MIC 50% / MIC 90%: E. faecalis, VanA (11)
[10] = test system: VanB vancomycin-resistant E. faecalis (12); assay: MIC broth microdilution, VanB E. faecalis; conditions: E. faecalis, VanB (12)
[11] = test system: Staphylococcus aureus (65 strains); assay: MIC broth microdilution, S. aureus all isolates; conditions: S. aureus (65), all resistance subsets
[12] = test system: β-hemolytic streptococci (23); assay: MIC broth microdilution, β-hemolytic streptococci; conditions: for MIC 50% / MIC 90%: β-hemolytic streptococci (23), MHB + lysed horse blood
VanC enterococci (22) = assay: MIC broth microdilution, vanC-carrying enterococci; conditions: VanC enterococci (22)
[13] = test system: vancomycin-susceptible E. faecium (21); assay: MIC broth microdilution, vancomycin-susceptible E. faecium; conditions: E. faecium, vancomycin-susceptible (21)
[14] = test system: vancomycin-susceptible E. faecalis (23); assay: MIC broth microdilution, vancomycin-susceptible E. faecalis; conditions: E. faecalis, vancomycin-susceptible (23)
[15] = 1 mg/kg single intraperitoneal dose
[16] = 4 mg/kg single intraperitoneal dose
[17] = 16 mg/kg single intraperitoneal dose

CNC(CC(C)C)C(=O)NC1C(=O)NC(CC(N)=O)C(=O)NC2C(=O)NC3C(=O)NC(C(=O)NC(C(=O)NCCOCCOCCN)c4cc(O)cc(O)c4-c4cc3ccc4O)C(O)c3ccc(c(Cl)c3)Oc3cc2cc(c3OC2OC(CO)C(O)C(O)C2OC2CC(C)(NCc3ccc(-c4ccc(Cl)cc4)cc3)C(O)C(C)O2)Oc2ccc(cc2Cl)C1O (stereo not shown) [Compound 9]
MIC 50% [1]: 0.12 µg/mL (≈ 0.0674 µM)
MIC 90% [1]: 0.12 µg/mL (≈ 0.0674 µM)
MIC 50% [2]: 0.12 µg/mL (≈ 0.0674 µM)
MIC 90% [2]: 0.12 µg/mL (≈ 0.0674 µM)
MIC 50% [3]: 0.25 µg/mL (≈ 0.14 µM)
MIC 50% [4]: 4 µg/mL (≈ 2.25 µM)
MIC 50% [5]: 0.12 µg/mL (≈ 0.0674 µM)
MIC 90% [5]: 0.12 µg/mL (≈ 0.0674 µM)
MIC 50% (S. pneumoniae (22)): 0.06 µg/mL
MIC 90% (S. pneumoniae (22)): 0.06 µg/mL
MIC 50% [6]: 0.06 µg/mL (≈ 0.0337 µM)
MIC 90% [6]: 0.06 µg/mL (≈ 0.0337 µM)
MIC 50% [7]: 1 µg/mL (≈ 0.562 µM)
MIC 90% [7]: 2 µg/mL (≈ 1.12 µM)
MIC 50% [8]: 0.06 µg/mL (≈ 0.0337 µM)
MIC 90% [8]: 0.12 µg/mL (≈ 0.0674 µM)
Max Kill (maximum decrease from initial infection level) (S. aureus ATCC 25923; [15]): 0.98 Log10 CFU/thigh
AUCc-t (AUC difference between control and treated animals) (S. aureus ATCC 25923; [15]): 7.4 (Log10 CFU/thigh)/hr
Max Kill (maximum decrease from initial infection level) (S. aureus ATCC 25923; [16]): 0.5 Log10 CFU/thigh
AUCc-t (AUC difference between control and treated animals) (S. aureus ATCC 25923; [16]): 17.2 (Log10 CFU/thigh)/hr
Max Kill (maximum decrease from initial infection level) (S. aureus ATCC 25923; [17]): −0.01 Log10 CFU/thigh
AUCc-t (AUC difference between control and treated animals) (S. aureus ATCC 25923; [17]): 24.6 (Log10 CFU/thigh)/hr
MIC 50% [9]: 4 µg/mL (≈ 2.25 µM)
MIC 90% [9]: 8 µg/mL (≈ 4.49 µM)
MIC 50% [10]: 0.25 µg/mL (≈ 0.14 µM)
MIC 90% [10]: 0.25 µg/mL (≈ 0.14 µM)
MIC 50% [11]: 0.12 µg/mL (≈ 0.0674 µM)
MIC 90% [11]: 0.5 µg/mL (≈ 0.281 µM)
MIC 50% [12]: 0.06 µg/mL
MIC 90% [12]: 0.12 µg/mL
MIC 50% (VanC enterococci (22)): 0.12 µg/mL (≈ 0.0674 µM)
MIC 90% (VanC enterococci (22)): 0.5 µg/mL (≈ 0.281 µM)
MIC 50% [13]: 0.06 µg/mL (≈ 0.0337 µM)
MIC 90% [13]: 0.12 µg/mL (≈ 0.0674 µM)
MIC 50% [14]: 0.12 µg/mL (≈ 0.0674 µM)
MIC 90% [14]: 0.25 µg/mL (≈ 0.14 µM)

CNC(CC(C)C)C(=O)NC1C(=O)NC(CC(N)=O)C(=O)NC2C(=O)NC3C(=O)NC(C(=O)NC(C(=O)NCCOCCOCCN)c4cc(O)cc(O)c4-c4cc3ccc4O)C(O)c3ccc(c(Cl)c3)Oc3cc2cc(c3OC2OC(CO)C(O)C(O)C2OC2CC(C)(NCc3ccc(OCc4ccc(Cl)c(Cl)c4)cc3)C(O)C(C)O2)Oc2ccc(cc2Cl)C1O (stereo not shown) [Compound 27]
MIC 50% [1]: 0.06 µg/mL (≈ 0.0325 µM)
MIC 90% [1]: 0.06 µg/mL (≈ 0.0325 µM)
MIC 50% [2]: 0.06 µg/mL (≈ 0.0325 µM)
MIC 90% [2]: 0.06 µg/mL (≈ 0.0325 µM)
MIC 50% [3]: 0.12 µg/mL (≈ 0.0651 µM)
MIC 50% [4]: 2 µg/mL (≈ 1.08 µM)
MIC 50% [5]: 0.06 µg/mL (≈ 0.0325 µM)
MIC 90% [5]: 0.06 µg/mL (≈ 0.0325 µM)
MIC 50% (S. pneumoniae (22)): 0.03 µg/mL
MIC 90% (S. pneumoniae (22)): 0.06 µg/mL
MIC 50% [6]: 0.03 µg/mL (≈ 0.0163 µM)
MIC 90% [6]: 0.03 µg/mL (≈ 0.0163 µM)
MIC 50% [7]: 0.5 µg/mL (≈ 0.271 µM)
MIC 90% [7]: 1 µg/mL (≈ 0.542 µM)
MIC 50% [8]: 0.03 µg/mL (≈ 0.0163 µM)
MIC 90% [8]: 0.03 µg/mL (≈ 0.0163 µM)
Max Kill (maximum decrease from initial infection level) (S. aureus ATCC 25923; [15]): 0.45 Log10 CFU/thigh
AUCc-t (AUC difference between control and treated animals) (S. aureus ATCC 25923; [15]): 19.8 (Log10 CFU/thigh)/hr
Max Kill (maximum decrease from initial infection level) (S. aureus ATCC 25923; [16]): −0.008 Log10 CFU/thigh
AUCc-t (AUC difference between control and treated animals) (S. aureus ATCC 25923; [16]): 18.8 (Log10 CFU/thigh)/hr
Max Kill (maximum decrease from initial infection level) (S. aureus ATCC 25923; [17]): −0.35 Log10 CFU/thigh
AUCc-t (AUC difference between control and treated animals) (S. aureus ATCC 25923; [17]): 36.9 (Log10 CFU/thigh)/hr
MIC 50% [9]: 2 µg/mL (≈ 1.08 µM)
MIC 90% [9]: 2 µg/mL (≈ 1.08 µM)
fold higher MIC50/MIC90 against VanA-type E. faecalis compared with wildtype (susceptible) strains ([9]; VanA vs wildtype E. faecalis): 16 fold
concentration inhibiting all strains ([9]; VanA-type E. faecalis): ≤ 2 µg/mL
MIC 50% [10]: 0.12 µg/mL (≈ 0.0651 µM)
MIC 90% [10]: 0.12 µg/mL (≈ 0.0651 µM)
MIC 50% [11]: 0.06 µg/mL (≈ 0.0325 µM)
MIC 90% [11]: 0.25 µg/mL (≈ 0.136 µM)
MIC 50% [12]: 0.06 µg/mL
MIC 90% [12]: 0.12 µg/mL
MIC 50% (VanC enterococci (22)): 0.06 µg/mL (≈ 0.0325 µM)
MIC 90% (VanC enterococci (22)): 0.25 µg/mL (≈ 0.136 µM)
MIC 50% [13]: 0.03 µg/mL (≈ 0.0163 µM)
MIC 90% [13]: 0.06 µg/mL (≈ 0.0325 µM)
MIC 50% [14]: 0.12 µg/mL (≈ 0.0651 µM)
MIC 90% [14]: 0.12 µg/mL (≈ 0.0651 µM)

CNC(CC(C)C)C(=O)NC1C(=O)NC(CC(N)=O)C(=O)NC2C(=O)NC3C(=O)NC(C(=O)NC(C(=O)NCCOCCOCCN(C)C)c4cc(O)cc(O)c4-c4cc3ccc4O)C(O)c3ccc(c(Cl)c3)Oc3cc2cc(c3OC2OC(CO)C(O)C(O)C2OC2CC(C)(NCc3ccc(-c4ccc(Cl)cc4)cc3)C(O)C(C)O2)Oc2ccc(cc2Cl)C1O (stereo not shown) [Compound 10]
MIC 50% [1]: 0.06 µg/mL (≈ 0.0332 µM)
MIC 90% [1]: 0.06 µg/mL (≈ 0.0332 µM)
MIC 50% [2]: 0.06 µg/mL (≈ 0.0332 µM)
MIC 90% [2]: 0.12 µg/mL (≈ 0.0664 µM)
MIC 50% [3]: 0.25 µg/mL (≈ 0.138 µM)
MIC 50% [4]: 4 µg/mL (≈ 2.21 µM)
MIC 50% [5]: 0.12 µg/mL (≈ 0.0664 µM)
MIC 90% [5]: 0.12 µg/mL (≈ 0.0664 µM)
MIC 50% (S. pneumoniae (22)): 0.03 µg/mL
MIC 90% (S. pneumoniae (22)): 0.06 µg/mL
MIC 50% [6]: 0.03 µg/mL (≈ 0.0166 µM)
MIC 90% [6]: 0.06 µg/mL (≈ 0.0332 µM)
MIC 50% [7]: 1 µg/mL (≈ 0.553 µM)
MIC 90% [7]: 2 µg/mL (≈ 1.11 µM)
MIC 50% [8]: 0.06 µg/mL (≈ 0.0332 µM)
MIC 90% [8]: 0.06 µg/mL (≈ 0.0332 µM)
Max Kill (maximum decrease from initial infection level) (S. aureus ATCC 25923; [15]): 0.43 Log10 CFU/thigh
AUCc-t (AUC difference between control and treated animals) (S. aureus ATCC 25923; [15]): 10.7 (Log10 CFU/thigh)/hr
Max Kill (maximum decrease from initial infection level) (S. aureus ATCC 25923; [16]): −0.06 Log10 CFU/thigh
AUCc-t (AUC difference between control and treated animals) (S. aureus ATCC 25923; [16]): 22.4 (Log10 CFU/thigh)/hr
Max Kill (maximum decrease from initial infection level) (S. aureus ATCC 25923; [17]): −0.02 Log10 CFU/thigh
AUCc-t (AUC difference between control and treated animals) (S. aureus ATCC 25923; [17]): 25.6 (Log10 CFU/thigh)/hr
MIC 50% [9]: 4 µg/mL (≈ 2.21 µM)
MIC 90% [9]: 8 µg/mL (≈ 4.42 µM)
MIC 50% [10]: 0.12 µg/mL (≈ 0.0664 µM)
MIC 90% [10]: 0.25 µg/mL (≈ 0.138 µM)
MIC 50% [11]: 0.06 µg/mL (≈ 0.0332 µM)
MIC 90% [11]: 0.25 µg/mL (≈ 0.138 µM)
fold more potent than teicoplanin and daptomycin ([12]; β-hemolytic streptococci): two- to four
fold more potent than vancomycin ([12]; β-hemolytic streptococci): four- to eight
MIC 50% [12]: 0.03 µg/mL
MIC 90% [12]: 0.12 µg/mL
MIC 50% (VanC enterococci (22)): 0.12 µg/mL (≈ 0.0664 µM)
MIC 90% (VanC enterococci (22)): 0.25 µg/mL (≈ 0.138 µM)
MIC 50% [13]: 0.06 µg/mL (≈ 0.0332 µM)
MIC 90% [13]: 0.06 µg/mL (≈ 0.0332 µM)
MIC 50% [14]: 0.12 µg/mL (≈ 0.0664 µM)
MIC 90% [14]: 0.12 µg/mL (≈ 0.0664 µM)
